Drawing on ChEMBL document CHEMBL1131735, “Structure-activity relationships of substituted 5H-thiazolo[3,2-a]pyrimidines as group 2 metabotropic glutamate receptor antagonists” (Bioorg Med Chem Lett, 1999), this text covers Ki for 16 compounds.

A value given as a limit tells only on which side of the number the result lay.

For this experiment, the target named is Metabotropic glutamate receptor 2 (Rattus norvegicus, UniProt P31421). As to the kind of experiment: Inhibition of 1S,3R-ACPD (10 uM) -stimulated GTP gamma 35S binding on rat Metabotropic glutamate receptor 2 transfected in CHO cells. The format is cell-based. Background: GTPγS resists hydrolysis and so accumulates on activated G proteins.
Chain of Metabotropic glutamate receptor 2 (P31421 whole entry): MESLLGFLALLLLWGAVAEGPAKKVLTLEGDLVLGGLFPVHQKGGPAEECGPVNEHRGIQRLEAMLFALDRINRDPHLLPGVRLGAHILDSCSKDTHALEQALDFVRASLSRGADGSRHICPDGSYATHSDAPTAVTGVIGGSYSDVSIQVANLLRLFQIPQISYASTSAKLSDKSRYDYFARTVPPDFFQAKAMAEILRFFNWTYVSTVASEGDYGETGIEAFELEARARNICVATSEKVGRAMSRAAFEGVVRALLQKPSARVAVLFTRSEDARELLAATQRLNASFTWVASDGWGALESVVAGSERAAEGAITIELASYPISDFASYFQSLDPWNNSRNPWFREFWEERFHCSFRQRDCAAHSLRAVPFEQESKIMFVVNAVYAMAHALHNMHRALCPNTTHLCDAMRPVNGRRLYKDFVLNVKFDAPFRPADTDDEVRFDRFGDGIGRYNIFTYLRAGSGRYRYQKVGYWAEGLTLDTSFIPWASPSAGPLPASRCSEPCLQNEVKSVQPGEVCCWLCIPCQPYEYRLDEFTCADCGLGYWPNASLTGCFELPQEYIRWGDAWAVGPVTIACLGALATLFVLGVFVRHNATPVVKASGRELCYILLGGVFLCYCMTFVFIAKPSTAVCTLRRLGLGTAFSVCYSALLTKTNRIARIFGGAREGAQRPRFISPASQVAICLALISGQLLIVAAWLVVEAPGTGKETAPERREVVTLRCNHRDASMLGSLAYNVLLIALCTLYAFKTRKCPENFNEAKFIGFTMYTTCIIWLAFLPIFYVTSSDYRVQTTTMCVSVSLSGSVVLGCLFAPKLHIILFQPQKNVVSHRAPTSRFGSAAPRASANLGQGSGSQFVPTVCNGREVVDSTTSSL

`CC1=C(C(=O)OCCN(C)C)C(c2ccccc2C)N2C=C(c3c(Cl)cccc3Cl)SC2=N1` (stereo unspecified): the Ki worked out at 8 µM.
The result for `COc1cccc(C2C(C(=O)OCCN(C)C)=C(C)N=C3SC(c4c(Cl)cccc4Cl)=CN32)c1` (stereo unspecified) reads 2 µM; that for `COc1ccccc1C1C(C(=O)OCCN(C)C)=C(C(C)C)N=C2SC(c3c(Cl)cccc3Cl)=CN21` (stereo unspecified), 4 µM; that for `COc1ccccc1C1C(C(=O)OCCCN(C)C)=C(C)N=C2SC(c3c(Cl)cccc3Cl)=CN21` (stereo unspecified), 2.4 µM.
The result for `COc1ccccc1C1C(C(=O)OCCN(C)C)=C(C)N=C2SC(c3ccc(Cl)cc3Cl)=CN21` (stereo unspecified) reads 1 µM; that for `COc1ccc(C2C(C(=O)OCCN(C)C)=C(C)N=C3SC(c4c(Cl)cccc4Cl)=CN32)cc1` (stereo unspecified), 7 µM.
For `COc1ccccc1C1C(C(=O)OCCN(C)C)=C(C)N=C2SC(c3ccc(Cl)cc3)=CN21` (stereo unspecified), the Ki is 4 µM.
To `COc1ccccc1C1C(C(=O)NCCN(C)C)=C(C)N=C2SC(c3c(Cl)cccc3Cl)=CN21` (stereo unspecified) belongs over 10 µM.
To `COc1ccccc1C1C(C(=O)OCCN(C)C)=C(C)N=C2SC(c3c(Cl)cccc3Cl)=CN21` (stereo unspecified) belongs 1.5 µM.
Take `CCC1=C(C(=O)OCCN(C)C)C(c2ccccc2OC)N2C=C(c3c(Cl)cccc3Cl)SC2=N1` (stereo unspecified): the affinity corresponds to a Ki of 1 µM.
As for `CC1=C(C(=O)OCCN(C)C)C(c2ccccc2Cl)N2C=C(c3c(Cl)cccc3Cl)SC2=N1` (stereo unspecified), the Ki is 2 µM.
To `COc1ccccc1C1C(C(=O)OCCN(C)C)=C(C(=O)c2ccccc2)N=C2SC(c3c(Cl)cccc3Cl)=CN21` (stereo unspecified) belongs over 10 µM; to `CC1=C(C(=O)OCCN(C)C)C(c2ccccc2OC(C)C)N2C=C(c3c(Cl)cccc3Cl)SC2=N1` (stereo unspecified), 2 µM; to `CC1=C(C(=O)OCCN(C)C)C(c2ccccc2F)N2C=C(c3c(Cl)cccc3Cl)SC2=N1` (stereo unspecified), 3.2 µM.
The result for `CCOc1ccccc1C1C(C(=O)OCCN(C)C)=C(C)N=C2SC(c3c(Cl)cccc3Cl)=CN21` (stereo unspecified) reads 3 µM.
The result for `CCOC(=O)C1=C(C)N=C2SC(c3c(Cl)cccc3Cl)=CN2C1c1ccccc1OC` (stereo unspecified) reads 4 µM.

In general, Ki refers to the equilibrium dissociation constant of an inhibitor or competing ligand from its target.
